The supplement of paper PMC9663587

Experiments:
[1] = compound: CCCCOc1c(C(=O)c2c(F)cc(C)cc2F)c[nH]c2nncc1-2
Luminespib/NVP-AUY922 = compound: CCNC(=O)c1noc(-c2cc(C(C)C)c(O)cc2O)c1-c1ccc(CN2CCOCC2)cc1 [Luminespib/NVP-AUY922]
THZ-P1-2 = compound: CN(C)C/C=C/C(=O)NC1=CC=C(C=C1)C(=O)NC2=CC=CC(=C2)NC3=NC=NC(=C3)C4=CNC5=CC=CC=C54 [THZ-P1-2]
BSJ-01-175 = compound: CN(C)C/C=C/C(=O)Nc1ccc(O[C@@H]2CCC[C@@H](Nc3ncc(Cl)c(-c4c[nH]c5ccccc45)n3)C2)cc1 [BSJ-01-175]
Saracatinib/AZD0530 = compound: CN1CCN(CCOc2cc(OC3CCOCC3)c3c(Nc4c(Cl)ccc5c4OCO5)ncnc3c2)CC1 [Saracatinib/AZD0530]
Ceritinib/LDK378 = compound: Cc1cc(Nc2ncc(Cl)c(Nc3ccccc3S(=O)(=O)C(C)C)n2)c(OC(C)C)cc1C1CCNCC1 [Ceritinib/LDK378]
YKL-5-124 = compound: C=CC(=O)Nc1ccc(C(=O)Nc2[nH]nc3c2CN(C(=O)N[C@H](CN(C)C)c2ccccc2)C3(C)C)cc1 [YKL-5-124]; assay: increase in dead-cell fraction, 72 h; higher = more death;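 also: breast cancer cell lines in 384-well plates, stained with Hoechst plus LIVE/DEAD far red dye and imaged, cells above an LDR intensity threshold counted dead, Hoechst-negative corpses included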
BSJ-03-123 = compound: CC(=O)c1c(C)c2cnc(Nc3ccc(N4CCN(CCOCCOCCOCCNC(=O)COc5cccc6c5C(=O)N(C5CCC(=O)NC5=O)C6=O)CC4)cn3)nc2n(C2CCCC2)c1=O [BSJ-03-123]; assay: as above
[2] = compound: CC(=O)c1c(C)c2cnc(Nc3ccc(N4CCNCC4)cn3)nc2n(C2CCCC2)c1=O; assay: as above
[3] = compound: CCN1CCN(Cc2ccc(Nc3ncc(F)c(-c4cc(F)c5nc(C)n(C(C)C)c5c4)n3)nc2)CC1; assay: as above
Neratinib/HKI272 = compound: CCOc1cc2ncc(C#N)c(Nc3ccc(OCc4ccccn4)c(Cl)c3)c2cc1NC(=O)/C=C/CN(C)C [Neratinib/HKI272]; assay: as above
[4] = compound: CCc1cnn2c(NCc3ccc[n+]([O-])c3)cc(N3CCCC[C@H]3CCO)nc12; assay: as above
LEE011/Ribociclib = compound: CN(C)C(=O)c1cc2cnc(Nc3ccc(N4CCNCC4)cn3)nc2n1C1CCCC1 [LEE011/Ribociclib]; assay: as above
THZ531 = compound: CN(C)C/C=C/C(=O)Nc1ccc(C(=O)N2CCC[C@@H](Nc3ncc(Cl)c(-c4c[nH]c5ccccc45)n3)C2)cc1 [THZ531]; assay: as above
THZ1 = compound: CN(C)C/C=C/C(=O)Nc1ccc(C(=O)Nc2cccc(Nc3ncc(Cl)c(-c4c[nH]c5ccccc45)n3)c2)cc1 [THZ1]; assay: as above
Flavopiridol = compound: CN1CC[C@H](c2c(O)cc(O)c3c(=O)cc(-c4ccccc4Cl)oc23)[C@H](O)C1 [Flavopiridol]; assay: as above
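For GR50, 72 h in this document: breast cancer and non-malignant breast epithelial cell lines, Deep Dye Drop or Dye Drop imaging, nine half-log doses, GR normalized to time-zero plates and DMSO-only controls.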

SUM185PE
GR50, 72 h [1]: > 10 µM
GR50, 72 h (Luminespib/NVP-AUY922): 0.00341 µM
GR50, 72 h (THZ-P1-2): 5.83 µM
GR50, 72 h (BSJ-01-175): 0.103 µM
GR50, 72 h (Saracatinib/AZD0530): 1.65 µM
GR50, 72 h (Ceritinib/LDK378): 0.983 µM
increase in dead-cell fraction (YKL-5-124; 0.001 µM): 0.0052
increase in dead-cell fraction (YKL-5-124; 0.003162 µM): 0.0479
increase in dead-cell fraction (YKL-5-124; 0.01 µM): 0.037
increase in dead-cell fraction (YKL-5-124; 0.03162 µM): 0.0467
increase in dead-cell fraction (YKL-5-124; 0.1 µM): 0.0495
increase in dead-cell fraction (YKL-5-124; 0.3162 µM): 0.0156
increase in dead-cell fraction (YKL-5-124; 1 µM): 0.067
increase in dead-cell fraction (YKL-5-124; 3.162 µM): 0.121
increase in dead-cell fraction (YKL-5-124; 10 µM): 0.148
increase in dead-cell fraction (BSJ-03-123; 0.001 µM): -0.0024
increase in dead-cell fraction (BSJ-03-123; 0.003162 µM): -0.0357
increase in dead-cell fraction (BSJ-03-123; 0.01 µM): 0.0044
increase in dead-cell fraction (BSJ-03-123; 0.03162 µM): 0.0319
increase in dead-cell fraction (BSJ-03-123; 0.1 µM): 0.0144
increase in dead-cell fraction (BSJ-03-123; 0.3162 µM): -0.0016
increase in dead-cell fraction (BSJ-03-123; 1 µM): 0.0213
increase in dead-cell fraction (BSJ-03-123; 3.162 µM): 0.0264
increase in dead-cell fraction (BSJ-03-123; 10 µM): 0.0146
increase in dead-cell fraction ([2]; 0.0003162 µM): 0.0082
increase in dead-cell fraction ([2]; 0.001 µM): 0.0038
increase in dead-cell fraction ([2]; 0.003162 µM): 0.0174
increase in dead-cell fraction ([2]; 0.01 µM): -0.0044
increase in dead-cell fraction ([2]; 0.03162 µM): -0.0035
increase in dead-cell fraction ([2]; 0.1 µM): 0.0063
increase in dead-cell fraction ([2]; 0.3162 µM): 0.02
increase in dead-cell fraction ([2]; 1 µM): 0.0086
increase in dead-cell fraction ([2]; 3.162 µM): 0.0015
increase in dead-cell fraction ([3]; 0.001 µM): -0.0051
increase in dead-cell fraction ([3]; 0.003162 µM): 0.0054
increase in dead-cell fraction ([3]; 0.01 µM): 0.0159
increase in dead-cell fraction ([3]; 0.03162 µM): 0.0271
increase in dead-cell fraction ([3]; 0.1 µM): 0.0298
increase in dead-cell fraction ([3]; 0.3162 µM): 0.0411
increase in dead-cell fraction ([3]; 1 µM): 0.0307
increase in dead-cell fraction ([3]; 3.162 µM): 0.0469
increase in dead-cell fraction ([3]; 10 µM): 0.04
increase in dead-cell fraction (Neratinib/HKI272; 0.0003162 µM): 0.0036
increase in dead-cell fraction (Neratinib/HKI272; 0.001 µM): -0.0035
increase in dead-cell fraction (Neratinib/HKI272; 0.003162 µM): 0.0085
increase in dead-cell fraction (Neratinib/HKI272; 0.01 µM): 0.0152
increase in dead-cell fraction (Neratinib/HKI272; 0.03162 µM): 0.0297
increase in dead-cell fraction (Neratinib/HKI272; 0.1 µM): 0.0255
increase in dead-cell fraction (Neratinib/HKI272; 0.3162 µM): 0.0574
increase in dead-cell fraction (Neratinib/HKI272; 1 µM): 0.068
increase in dead-cell fraction (Neratinib/HKI272; 3.162 µM): 0.0933
increase in dead-cell fraction ([4]; 0.0001 µM): -0.003
increase in dead-cell fraction ([4]; 0.0003162 µM): 0.0089
increase in dead-cell fraction ([4]; 0.001 µM): -0.0107
increase in dead-cell fraction ([4]; 0.003162 µM): 0.0052
increase in dead-cell fraction ([4]; 0.01 µM): 0.0137
increase in dead-cell fraction ([4]; 0.03162 µM): 0.0687
increase in dead-cell fraction ([4]; 0.1 µM): 0.0528
increase in dead-cell fraction ([4]; 0.3162 µM): 0.0636
increase in dead-cell fraction ([4]; 1 µM): 0.0458
increase in dead-cell fraction (LEE011/Ribociclib; 0.001 µM): -0.0065
increase in dead-cell fraction (LEE011/Ribociclib; 0.003162 µM): -0.0157
increase in dead-cell fraction (LEE011/Ribociclib; 0.01 µM): -0.0081
increase in dead-cell fraction (LEE011/Ribociclib; 0.03162 µM): -0.0009
increase in dead-cell fraction (LEE011/Ribociclib; 0.1 µM): -0.0246
increase in dead-cell fraction (LEE011/Ribociclib; 0.3162 µM): -0.0198
increase in dead-cell fraction (LEE011/Ribociclib; 1 µM): -0.0191
increase in dead-cell fraction (LEE011/Ribociclib; 3.162 µM): -0.0045
increase in dead-cell fraction (LEE011/Ribociclib; 10 µM): 0.0009
increase in dead-cell fraction (THZ531; 0.0001 µM): 0.0141
increase in dead-cell fraction (THZ531; 0.0003162 µM): 0.0051
increase in dead-cell fraction (THZ531; 0.001 µM): -0.0125
increase in dead-cell fraction (THZ531; 0.003162 µM): -0.0076
increase in dead-cell fraction (THZ531; 0.01 µM): -0.0143
increase in dead-cell fraction (THZ531; 0.03162 µM): -0.0254
increase in dead-cell fraction (THZ531; 0.1 µM): 0.0083
increase in dead-cell fraction (THZ531; 0.3162 µM): 0.278
increase in dead-cell fraction (THZ531; 1 µM): 0.139
increase in dead-cell fraction (THZ1; 0.0001 µM): -0.0025
increase in dead-cell fraction (THZ1; 0.0003162 µM): 0.0107
increase in dead-cell fraction (THZ1; 0.001 µM): -0.0054
increase in dead-cell fraction (THZ1; 0.003162 µM): 0.0295
increase in dead-cell fraction (THZ1; 0.01 µM): 0.0559
increase in dead-cell fraction (THZ1; 0.03162 µM): 0.216
increase in dead-cell fraction (THZ1; 0.1 µM): 0.224
increase in dead-cell fraction (THZ1; 0.3162 µM): 0.154
increase in dead-cell fraction (THZ1; 1 µM): 0.183
increase in dead-cell fraction (Flavopiridol; 0.0001 µM): 0.0138
increase in dead-cell fraction (Flavopiridol; 0.0003162 µM): 0.0542
increase in dead-cell fraction (Flavopiridol; 0.001 µM): 0.0183
increase in dead-cell fraction (Flavopiridol; 0.003162 µM): -0.0158
increase in dead-cell fraction (Flavopiridol; 0.01 µM): 0.0161
increase in dead-cell fraction (Flavopiridol; 0.03162 µM): 0.0472
increase in dead-cell fraction (Flavopiridol; 0.1 µM): 0.021
increase in dead-cell fraction (Flavopiridol; 0.3162 µM): -0.002
increase in dead-cell fraction (Flavopiridol; 1 µM): 0.117
